Common to all, as to type: cell-based
One test deals with Target C CJ mRNA. Briefly: Gene panel canonical junction qPCR assay, Target C. The settings on record: protocol as above, concentration having 50% response in CJ decrease, read-out: Target C IC50 (decrease in CJ mRNA levels). The method, then: (§1) Compounds described herein were used to modulate RNA transcript abundance in cells. The expression of a target mRNA was measured by detecting the formation of an exon-exon junction in the canonical transcript (CJ). A compound mediated exon-inclusion event was detected by observing an increase in formation of a new junction with an alternative exon (AJ). Real-time qPCR assays were used to detect these splicing switches and interrogate the potency of various compounds towards different target genes. A high-throughput real time quantitative PCR (RT-qPCR) assay was developed to measure these two isoforms of the mRNA (CJ and AJ) for an exemplary gene, HTT, together with a control housekeeping gene, GAPDH or GUSB or PPIA, used for normalization. Briefly, the A673 or K562 cell line was treated with various compounds described herein (e.g., compounds of Formula (I) or (II)). After treatment, the levels of the HTT mRNA targets were determined from each sample of cell lysate by cDNA synthesis followed by qPCR.
(§2) The A673 cell line was cultured in DMEM with 10% FBS. Cells were diluted with full growth media and plated in a 96-well plate (15,000 cells in 100 ul media per well). The plate was incubated at 37° C. with 5% CO2 for 24 hours to allow cells to adhere. An 11-point 3-fold serial dilution of the compounds was made in DMSO then diluted in media in an intermediate plate. Compounds were transferred from the intermediate plate to the cell plate with the top dose at a final concentration of 10 uM in the well. Final DMSO concentration was kept at or below 0.25%. The cell plate was returned to the incubator at 37° C. with 5% CO2 for an additional 24 hours.
(§3) The K562 cell line was cultured in IMDM with 10% FBS. For K562, cells were diluted with full growth media and plated in either a 96-well plate (50,000 cells in 50 uL media per well) or a 384-well plate (8,000-40,000 cells in 45 uL media per well). An 11-point 3-fold serial dilution of the compounds were made in DMSO then diluted in media in an intermediate plate. Compound was transferred from the intermediate plate to the cell plate with the top dose at a final concentration of 10 uM in the well. Final DMSO concentration was kept at or below 0.25%. Final volume was 100 uL for 96-well plate and 50 uL for 384-well plate. The cell plate was then placed in an incubator at 37° C. with 5% CO2 for 24 hours.
(§4) The cells were then gently washed with 50 uL-100 uL cold PBS before proceeding to addition of lysis buffer. 30 uL-50 uL of room temperature lysis buffer with DNAse I (and optionally RNAsin) was added to each well. Cells were shaken/mixed thoroughly at room temperature for 5-10 minutes for lysis to take place and then 3 uL-5 uL of room temperature stop solution was added and wells were shaken/mixed again. After 2-5 minutes, the cell lysate plate was transferred to ice for RT-qPCR reaction setup. The lysates could also be frozen at −80° C. for later use.
(§5) In some cases, a direct lysis buffer was used. An appropriate volume of 3× lysis buffer (10 mM Tris, 150 mM NaCl, 1.5%-2.5% Igepal and 0.1-1 U/uL RNAsin, pH 7.4) was directly added to either K562 or A673 cells in media and mixed by pipetting 3 times. The plates were then incubated at room temperature with shaking/rocking for 20-50 minutes to allow for lysis to take place. After this time, the cell lysate plate was transferred to ice to set up for the RT-qPCR reactions. The lysates could also be frozen at −80° C. for later use.
(§6) To set up 10 uL RT-qPCR reactions, cell lysates were transferred to 384-well qPCR plates containing the master mix according to the table below. The plates were sealed, gently vortexed, and spun down before the run. The volumes were adjusted accordingly in some instances where the reaction was carried in 20 uL. The table below summarizes the components of the RT-qPCR reactions:
(§7) The RT-qPCR reaction was performed using a QuantStudio (ThermoFisher) under the following fast cycling conditions. […]

Test [1] deals with HTT CJ mRNA. Briefly: RT-qPCR splicing assay, HTT canonical junction (CJ) mRNA decrease. The settings on record: A673 or K562 cells, 24 hours compound treatment, top dose 10 uM; concentration having 50% response in CJ decrease. The method, then: as §1, §2, §3, §4, §5, §6, §7
Another test relates to SMN2 CJ mRNA. Briefly: Gene panel canonical junction qPCR assay, SMN2. The settings on record: protocol as above, concentration having 50% response in CJ decrease, read-out: SMN2 IC50 (decrease in CJ mRNA levels). Here is the method:
as §1, with “After treatment, the levels of the HTT mRNA targets were determined from each sample of cell lysate by cDNA synthesis followed by qPCR.” left out
as §2, §3, §4, §5, §6
The RT-qPCR reaction was performed using a QuantStudio (ThermoFisher) under the following fast cycling conditions. All samples and standards were analyzed at least in duplicate. […]
Background: Quantitative PCR measures a nucleic acid by following its amplification.

Test [2] has as its system HTT CJ mRNA. Briefly: Gene panel canonical junction qPCR assay, HTT. The settings on record: protocol as above, concentration having 50% response in CJ decrease, read-out: HTT IC50 (decrease in CJ mRNA levels). Here is the method:
as §1, §2, §3, §4, §5, §6, §7

Another test concerns HTT AJ mRNA. Briefly: RT-qPCR splicing assay, HTT alternative junction (AJ) mRNA increase. The settings on record: A673 or K562 cells, 24 hours compound treatment, top dose 10 uM; concentration having 50% response in AJ increase. The method, then:
as §1, §2, §3, §4, §5, §6, §7

Bounds are passed on as bounds.

A word on the IC50: it is the concentration that inhibits the measured activity by half. For orientation: AC50 means the midpoint of the concentration-response curve, whichever way the signal moves. With `Cc1cn2nc(-n3cnc4ccc(N5CCN(C)CC5)cc4c3=O)cc(C)c2n1` [Compound 202, 3-(2,8-dimethylimidazo[1,2-b]pyridazin-6-yl)-6-(4-methylpiperazin-1-yl)quinazolin-4(3H)-one], the IC50 in the test on Target C CJ mRNA, in the test with SMN2 CJ mRNA and in the test on HTT CJ mRNA [2] was 1 to 10 µM in each case. Further, the AC50 with HTT CJ mRNA [1] and in the test with HTT AJ mRNA was 1 to 10 µM throughout.
Turning to `Cc1cc(-c2ccc3c(=O)[nH]c(N4CCNCC4)nc3c2)cc2cn(C)nc12` [Compound 211, 7-(2,7-dimethyl-2H-indazol-5-yl)-2-(piperazin-1-yl)quinazolin-4(3H)-one], the half-inhibitory concentration (IC50) with Target C CJ mRNA, in the test on SMN2 CJ mRNA and with HTT CJ mRNA [2] was over 10 µM throughout. For the same molecule, the AC50 in the test on HTT CJ mRNA [1] and with HTT AJ mRNA was over 10 µM in each case.
As to `Cc1cc(-c2ccc3c(=O)[nH]c(N4CCN(C)CC4)nc3c2)cc2cn(C)nc12` [Compound 212, 7-(2,7-dimethyl-2H-indazol-5-yl)-2-(4-methylpiperazin-1-yl)quinazolin-4(3H)-one], the IC50 in the test on Target C CJ mRNA, in the test on SMN2 CJ mRNA and in the test with HTT CJ mRNA [2] was 1 to 10 µM throughout. Moreover, the concentration at half-maximal activity (AC50) in the test with HTT CJ mRNA [1] and in the test on HTT AJ mRNA was 1 to 10 µM each time.
On to `Cc1cc(-c2nc3cc(N4CCNCC4)ccc3c(=O)[nH]2)cc2cn(C)nc12` [Compound 213, 2-(2,7-dimethyl-2H-indazol-5-yl)-7-(piperazin-1-yl)quinazolin-4(3H)-one], for which the concentration for half-maximal inhibition (IC50) with Target C CJ mRNA, with SMN2 CJ mRNA and in the test with HTT CJ mRNA [2] was over 10 µM in each case. Also, the concentration at half-maximal activity (AC50) in the test with HTT CJ mRNA [1] and with HTT AJ mRNA was over 10 µM each time.
For `Cc1cc(-c2nc3cc(N4CCN(C)CC4)ccc3c(=O)[nH]2)cc2cn(C)nc12` [Compound 214, 2-(2,7-dimethyl-2H-indazol-5-yl)-7-(4-methylpiperazin-1-yl)quinazolin-4(3H)-one], the half-inhibitory concentration (IC50) in the test on Target C CJ mRNA, in the test on SMN2 CJ mRNA and with HTT CJ mRNA [2] was over 10 µM in each case. Moreover, the half-maximal activity concentration (AC50) with HTT CJ mRNA [1] and with HTT AJ mRNA was over 10 µM in each case.

Values taken from US20230167093A1, “COMPOUNDS AND METHODS FOR MODULATING SPLICING” (REMIX THERAPEUTICS INC., priority 2020, published 2023).
